# Data: ChEMBL document CHEMBL1201861, “Genomics of Drug Sensitity in Cancer screening data, Wellcome Trust Sanger Institute”
# Assays:
# Assay in all cases: cells
# D283 Med = assay type: functional, cell-based, Homo sapiens; conditions: Homo sapiens, D283 Med
# Description: SANGER: Inhibition of human D-283MED cell growth in a cell viability assay.
# D-336MG = assay type: functional, cell-based, Homo sapiens; conditions: Homo sapiens, D-336MG
# Description: SANGER: Inhibition of human D-336MG cell growth in a cell viability assay.
# D-542MG = assay type: functional, cell-based, Homo sapiens; conditions: Homo sapiens, D-542MG
# Description: SANGER: Inhibition of human D-542MG cell growth in a cell viability assay.
# DMS-79 = assay type: functional, cell-based; conditions: Homo sapiens;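 note: growth inhibition measured with a cell viability assay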
# Description: SANGER: Inhibition of human DMS-79 cell growth in a cell viability assay.
# Daoy = assay type: functional, cell-based, Homo sapiens; conditions: Homo sapiens, Daoy;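 note: daoy cell growth inhibition, read out as cell viability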
# Description: SANGER: Inhibition of human Daoy cell growth in a cell viability assay.
# EW-18 = assay type: functional, cell-based; conditions: Homo sapiens;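 note: growth inhibition of EW-18 cells, read out by a cell viability assay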
# Description: SANGER: Inhibition of human EW-18 cell growth in a cell viability assay.
# GAK = assay type: functional, cell-based, Homo sapiens; conditions: Homo sapiens, GAK;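 note: cell growth inhibition read out by a cell viability assay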
# Description: SANGER: Inhibition of human GAK cell growth in a cell viability assay.
# HC-1 = assay type: functional, cell-based; conditions: Homo sapiens;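 note: growth inhibition of HC-1 cells measured by a cell viability assay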
# Description: SANGER: Inhibition of human HC-1 cell growth in a cell viability assay.
# HCC2157 = assay type: functional, cell-based; conditions: Homo sapiens;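 note: growth inhibition of the cancer cell line, read out as cell viability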
# Description: SANGER: Inhibition of human HCC2157 cell growth in a cell viability assay.
# HuP-T3 = assay type: functional, cell-based, Homo sapiens; conditions: Homo sapiens, HuP-T3;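 note: HuP-T3 cell growth inhibition, read out with a cell viability assay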
# Description: SANGER: Inhibition of human HuP-T3 cell growth in a cell viability assay.
# JVM-2 = assay type: functional, cell-based; conditions: Homo sapiens;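 note: growth inhibition of JVM-2 cells determined by a cell viability assay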
# Description: SANGER: Inhibition of human JVM-2 cell growth in a cell viability assay.
# KARPAS-45 = assay type: functional, cell-based; conditions: Homo sapiens;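 note: inhibition of cell line growth, read out through a viability assay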
# Description: SANGER: Inhibition of human KARPAS-45 cell growth in a cell viability assay.
# KG-1 = assay type: functional, cell-based; conditions: Homo sapiens;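 note: growth inhibition of KG-1 cells, read out by a cell viability assay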
# Description: SANGER: Inhibition of human KG-1 cell growth in a cell viability assay.
# KGN = assay type: functional, cell-based, Homo sapiens; conditions: Homo sapiens, KGN;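 note: growth inhibition of KGN cells, read out with a cell viability assay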
# Description: SANGER: Inhibition of human KGN cell growth in a cell viability assay.
# MCF7 = assay type: functional, cell-based, Homo sapiens; conditions: Homo sapiens, MCF7;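 note: growth inhibition of human MCF7 cells, read out with a cell viability assay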
# Description: SANGER: Inhibition of human MCF7 cell growth in a cell viability assay.
# MDA-MB-231 = assay type: functional, cell-based, Homo sapiens; conditions: Homo sapiens, MDA-MB-231
# Description: SANGER: Inhibition of human MDA-MB-231 cell growth in a cell viability assay.
# MDA-MB-453 = assay type: functional, cell-based, Homo sapiens; conditions: Homo sapiens, MDA-MB-453
# Description: SANGER: Inhibition of human MDA-MB-453 cell growth in a cell viability assay.
# MKN-45 = assay type: functional, cell-based, Homo sapiens; conditions: Homo sapiens, MKN-45;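 note: growth inhibition of human MKN-45 cells, measured with a cell viability assay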
# Description: SANGER: Inhibition of human MKN45 cell growth in a cell viability assay.
# MLMA = assay type: functional, cell-based, Homo sapiens; conditions: Homo sapiens, MLMA;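 note: growth inhibition of MLMA cells (human), determined through a cell viability readout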
# Description: SANGER: Inhibition of human MLMA cell growth in a cell viability assay.
# Mo = assay type: functional, cell-based; conditions: Homo sapiens
# Description: SANGER: Inhibition of human Mo-T cell growth in a cell viability assay.
# NCI-H1304 = assay type: functional, cell-based; conditions: Homo sapiens;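 note: growth inhibition of the cancer cell line, measured in a cell viability assay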
# Description: SANGER: Inhibition of human NCI-H1304 cell growth in a cell viability assay.
# NCI-H1623 = assay type: functional, cell-based, Homo sapiens; conditions: Homo sapiens, NCI-H1623;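 note: cell viability assay used as the read-out for growth inhibition of NCI-H1623 cells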
# Description: SANGER: Inhibition of human NCI-H1623 cell growth in a cell viability assay.
# NCI-H1651 = assay type: functional, cell-based, Homo sapiens; conditions: Homo sapiens, NCI-H1651;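 note: Read-out is a cell viability assay, with IC50 expressing inhibition of NCI-H1651 cell growth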
# Description: SANGER: Inhibition of human NCI-H1651 cell growth in a cell viability assay.
# NCI-H209 = assay type: functional, cell-based; conditions: Homo sapiens;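 note: growth inhibition of human NCI-H209 cells, measured by a cell viability assay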
# Description: SANGER: Inhibition of human NCI-H209 cell growth in a cell viability assay.
# NCI-H292 = assay type: functional, cell-based, Homo sapiens; conditions: Homo sapiens, NCI-H292;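 note: growth inhibition of NCI-H292 cells, read out with a cell viability assay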
# Description: SANGER: Inhibition of human NCI-H292 cell growth in a cell viability assay.
# NCI-H747 = assay type: functional, cell-based; conditions: Homo sapiens;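 note: growth inhibition of human NCI-H747 cells, read out by a cell viability assay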
# Description: SANGER: Inhibition of human NCI-H747 cell growth in a cell viability assay.
# NCI-H82 = assay type: functional, cell-based; conditions: Homo sapiens;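 note: growth inhibition of NCI-H82 cells, measured with a cell viability readout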
# Description: SANGER: Inhibition of human NCI-H82 cell growth in a cell viability assay.
# NMC-G1 = assay type: functional, cell-based, Homo sapiens; conditions: Homo sapiens, NMC-G1;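 note: growth inhibition of the NMC-G1 cell line, measured with a cell viability read-out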
# Description: SANGER: Inhibition of human NMC-G1 cell growth in a cell viability assay.
# PFSK-1 = assay type: functional, cell-based, Homo sapiens; conditions: Homo sapiens, PFSK-1;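 note: cell viability assay measuring how strongly compounds suppress growth of human PFSK-1 cells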
# Description: SANGER: Inhibition of human PFSK-1 cell growth in a cell viability assay.
# RERF-LC-MS = assay type: functional, cell-based, Homo sapiens; conditions: Homo sapiens, RERF-LC-MS;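 note: growth inhibition of human RERF-LC-MS cells, read out by a cell viability assay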
# Description: SANGER: Inhibition of human RERF-LC-MS cell growth in a cell viability assay.
# RH-1 = assay type: functional, cell-based, Homo sapiens; conditions: Homo sapiens, RH-1;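 note: growth inhibition of human RH-1 cells, read out with a cell viability assay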
# Description: SANGER: Inhibition of human RH-1 cell growth in a cell viability assay.
# RVH-421 = assay type: functional, cell-based, Homo sapiens; conditions: Homo sapiens, RVH-421
# Description: SANGER: Inhibition of human RVH-421 cell growth in a cell viability assay.
# Ramos-2G6-4C10 = assay type: functional, cell-based; conditions: Homo sapiens;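 note: growth inhibition of the cell line, measured by a cell viability read-out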
# Description: SANGER: Inhibition of human Ramos-2G6-4C10 cell growth in a cell viability assay.
# SF-126 = assay type: functional, cell-based, Homo sapiens; conditions: Homo sapiens, SF-126;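 note: growth inhibition of human SF126 cells, read out with a cell viability assay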
# Description: SANGER: Inhibition of human SF126 cell growth in a cell viability assay.
# SK-MES-1 = assay type: functional, cell-based, Homo sapiens; conditions: Homo sapiens, SK-MES-1;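 note: growth inhibition of human SK-MES-1 cells, read out with a cell viability assay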
# Description: SANGER: Inhibition of human SK-MES-1 cell growth in a cell viability assay.
# SKG-IIIa = assay type: functional, cell-based, Homo sapiens; conditions: Homo sapiens, SKG-IIIa;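 note: cell growth inhibition, read out with a cell viability assay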
# Description: SANGER: Inhibition of human SKG-IIIa cell growth in a cell viability assay.
# SN12C = assay type: functional, cell-based, Homo sapiens; conditions: Homo sapiens, SN12C;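 note: growth inhibition of human SN12C cells, measured by a cell viability assay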
# Description: SANGER: Inhibition of human SN12C cell growth in a cell viability assay.
# SNU-C2B = assay type: functional, cell-based, Homo sapiens; conditions: Homo sapiens, SNU-C2B;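 note: cell viability readout used to measure compound-driven suppression of SNU-C2B cell proliferation, IC50 marking half-maximal growth inhibition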
# Description: SANGER: Inhibition of human SNU-C2B cell growth in a cell viability assay.
# SW626 = assay type: functional, cell-based, Homo sapiens; conditions: Homo sapiens, SW626;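 note: growth inhibition of SW626 cells, measured with a cell viability assay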
# Description: SANGER: Inhibition of human SW626 cell growth in a cell viability assay.
# SW756 = assay type: functional, cell-based, Homo sapiens; conditions: Homo sapiens, SW756;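 note: growth inhibition of human SW756 cells, read out with a cell viability assay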
# Description: SANGER: Inhibition of human SW756 cell growth in a cell viability assay.
# CWR22R = assay type: functional, cell-based, Homo sapiens; conditions: Homo sapiens, 22Rv1;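 note: growth inhibition of 22Rv1 cells, read out with a cell viability assay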
# Description: SANGER: Inhibition of human 22RV1 cell growth in a cell viability assay.
# 639-V = assay type: functional, cell-based, Homo sapiens; conditions: Homo sapiens, 639-V;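 note: growth inhibition of 639-V cells, read out with a cell viability assay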
# Description: SANGER: Inhibition of human 639-V cell growth in a cell viability assay.
# 8505C = assay type: functional, cell-based, Homo sapiens; conditions: Homo sapiens, 8505C
# Description: SANGER: Inhibition of human 8505C cell growth in a cell viability assay.
# A2058 = assay type: functional, cell-based; conditions: Homo sapiens;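 note: reduction of A2058 cell growth, read out with a viability assay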
# Description: SANGER: Inhibition of human A2058 cell growth in a cell viability assay.
# A673 = assay type: functional, cell-based, Homo sapiens; conditions: Homo sapiens, A673;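 note: growth inhibition of human A673 cells, read out through a cell viability assay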
# Description: SANGER: Inhibition of human A673 cell growth in a cell viability assay.
# A704 = assay type: functional, cell-based, Homo sapiens; conditions: Homo sapiens, A704;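 note: growth inhibition of human A704 cells, read out with a cell viability assay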
# Description: SANGER: Inhibition of human A704 cell growth in a cell viability assay.
# AM-38 = assay type: functional, cell-based, Homo sapiens; conditions: Homo sapiens, AM-38;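 note: growth inhibition of AM-38 cells of human origin, read out by a cell viability assay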
# Description: SANGER: Inhibition of human AM-38 cell growth in a cell viability assay.
# AN3-CA = assay type: functional, cell-based; conditions: Homo sapiens;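 note: growth inhibition of human AN3-CA cells measured by a cell viability assay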
# Description: SANGER: Inhibition of human AN3-CA cell growth in a cell viability assay.
# Becker = assay type: functional, cell-based, Homo sapiens; conditions: Homo sapiens, Becker;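 note: growth inhibition of Becker cells, read out with a cell viability assay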
# Description: SANGER: Inhibition of human Becker cell growth in a cell viability assay.
# CAL-12T = assay type: functional, cell-based, Homo sapiens; conditions: Homo sapiens, CAL-12T;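 note: growth inhibition of human CAL-12T cells, read out with a cell viability assay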
# Description: SANGER: Inhibition of human CAL-12T cell growth in a cell viability assay.
# CAL-72 = assay type: functional, cell-based, Homo sapiens; conditions: Homo sapiens, CAL-72;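 note: cell viability assay measuring inhibition of proliferation in the CAL-72 cell line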
# Description: SANGER: Inhibition of human CAL-72 cell growth in a cell viability assay.
# TE-12 = assay type: functional, cell-based; conditions: Homo sapiens;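 note: growth inhibition of TE-12 cells, read out by a cell viability assay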
# Description: SANGER: Inhibition of human TE-12 cell growth in a cell viability assay.
# U-266 = assay type: functional, cell-based; conditions: Homo sapiens
# Description: SANGER: Inhibition of human U-266 cell growth in a cell viability assay.
smiles,measurement,setting,value
Cc1cnc(-c2cnc(NCCNc3ccc(C#N)cn3)nc2-c2ccc(Cl)cc2Cl)[nH]1 [LADUVIGLUSIB],IC50,D283 Med,> 2560 nM
same,IC50,D-336MG,846 nM
same,IC50,D-542MG,> 2560 nM
same,IC50,DMS-79,> 2560 nM
same,IC50,Daoy,> 2560 nM
same,IC50,EW-18,> 2560 nM
same,IC50,GAK,> 2560 nM
same,IC50,HC-1,> 2560 nM
same,IC50,HCC2157,> 2560 nM
same,IC50,HuP-T3,> 2560 nM
same,IC50,JVM-2,> 2560 nM
same,IC50,KARPAS-45,> 2560 nM
same,IC50,KG-1,> 2560 nM
same,IC50,KGN,> 2560 nM
same,IC50,MCF7,> 2560 nM
same,IC50,MDA-MB-231,> 2560 nM
same,IC50,MDA-MB-453,> 2560 nM
same,IC50,MKN-45,> 2560 nM
same,IC50,MLMA,> 2560 nM
same,IC50,Mo,> 2560 nM
same,IC50,NCI-H1304,> 2560 nM
same,IC50,NCI-H1623,> 2560 nM
same,IC50,NCI-H1651,> 2560 nM
same,IC50,NCI-H209,> 2560 nM
same,IC50,NCI-H292,> 2560 nM
same,IC50,NCI-H747,> 2560 nM
same,IC50,NCI-H82,> 2560 nM
same,IC50,NMC-G1,> 2560 nM
same,IC50,PFSK-1,> 2560 nM
same,IC50,RERF-LC-MS,> 2560 nM
same,IC50,RH-1,> 2560 nM
same,IC50,RVH-421,> 2560 nM
same,IC50,Ramos-2G6-4C10,> 2560 nM
same,IC50,SF-126,> 2560 nM
same,IC50,SK-MES-1,> 2560 nM
same,IC50,SKG-IIIa,> 2560 nM
same,IC50,SN12C,> 2560 nM
same,IC50,SNU-C2B,> 2560 nM
same,IC50,SW626,> 2560 nM
same,IC50,SW756,> 2560 nM
same,IC50,CWR22R,> 2560 nM
same,IC50,639-V,> 2560 nM
same,IC50,8505C,> 2560 nM
same,IC50,A2058,> 2560 nM
same,IC50,A673,> 2560 nM
same,IC50,A704,> 2560 nM
same,IC50,AM-38,> 2560 nM
same,IC50,AN3-CA,> 2560 nM
same,IC50,Becker,> 2560 nM
same,IC50,CAL-12T,> 2560 nM
same,IC50,CAL-72,> 2560 nM
same,IC50,TE-12,> 2560 nM
same,IC50,U-266,> 2560 nM
CN(c1ncccc1CNc1nc(Nc2ccc3c(c2)CC(=O)N3)ncc1C(F)(F)F)S(C)(=O)=O [PF-00562271],IC50,D283 Med,> 2560 nM
same,IC50,D-336MG,1860 nM
same,IC50,D-542MG,> 2560 nM
same,IC50,DMS-79,> 2560 nM
same,IC50,Daoy,> 2560 nM
same,IC50,EW-18,> 2560 nM
same,IC50,GAK,> 2560 nM
same,IC50,HC-1,> 2560 nM
same,IC50,HCC2157,> 2560 nM
same,IC50,HuP-T3,> 2560 nM
same,IC50,JVM-2,> 2560 nM
same,IC50,KARPAS-45,> 2560 nM
same,IC50,KG-1,> 2560 nM
same,IC50,KGN,> 2560 nM
same,IC50,MCF7,> 2560 nM
same,IC50,MDA-MB-231,2500 nM
same,IC50,MDA-MB-453,> 2560 nM
same,IC50,MKN-45,> 2560 nM
same,IC50,MLMA,> 2560 nM
same,IC50,Mo,> 2560 nM
same,IC50,NCI-H1304,> 2560 nM
same,IC50,NCI-H1623,> 2560 nM
same,IC50,NCI-H1651,> 2560 nM
same,IC50,NCI-H209,> 2560 nM
same,IC50,NCI-H292,> 2560 nM
same,IC50,NCI-H747,> 2560 nM
same,IC50,NCI-H82,> 2560 nM
same,IC50,NMC-G1,> 2560 nM
same,IC50,PFSK-1,> 2560 nM
same,IC50,RERF-LC-MS,> 2560 nM
same,IC50,RH-1,> 2560 nM
same,IC50,RVH-421,> 2560 nM
same,IC50,Ramos-2G6-4C10,> 2560 nM
same,IC50,SF-126,> 2560 nM
same,IC50,SK-MES-1,> 2560 nM
same,IC50,SKG-IIIa,> 2560 nM
same,IC50,SN12C,> 2560 nM
same,IC50,SNU-C2B,> 2560 nM
same,IC50,SW626,> 2560 nM
same,IC50,SW756,> 2560 nM
same,IC50,CWR22R,> 2560 nM
same,IC50,639-V,> 2560 nM
same,IC50,8505C,> 2560 nM
same,IC50,A2058,> 2560 nM
same,IC50,A673,> 2560 nM
same,IC50,A704,> 2560 nM
same,IC50,AM-38,> 2560 nM
same,IC50,AN3-CA,1220 nM
same,IC50,Becker,> 2560 nM
same,IC50,CAL-12T,> 2560 nM
same,IC50,CAL-72,> 2560 nM
same,IC50,TE-12,> 2560 nM
same,IC50,U-266,> 2560 nM
CCC1=C[C@@H]2CN(C1)Cc1c([nH]c3ccccc13)[C@@](C(=O)OC)(c1cc3c(cc1OC)N(C)[C@H]1[C@@](O)(C(=O)OC)[C@H](OC(C)=O)[C@]4(CC)C=CCN5CC[C@]31[C@@H]54)C2 [VINORELBINE],IC50,D283 Med,> 64 nM
same,IC50,D-336MG,63.9 nM
same,IC50,D-542MG,> 64 nM
same,IC50,DMS-79,> 64 nM
same,IC50,Daoy,6.65 nM
same,IC50,EW-18,7.05 nM
same,IC50,GAK,> 64 nM
same,IC50,HC-1,3.89 nM
same,IC50,HCC2157,18.8 nM
same,IC50,HuP-T3,> 64 nM
same,IC50,JVM-2,> 64 nM
same,IC50,KARPAS-45,5.74 nM
same,IC50,KG-1,> 64 nM
same,IC50,KGN,7.05 nM
same,IC50,MCF7,5.01 nM
same,IC50,MDA-MB-231,37.4 nM
same,IC50,MDA-MB-453,> 64 nM
same,IC50,MKN-45,2.29 nM
same,IC50,MLMA,36.9 nM
same,IC50,Mo,> 64 nM
same,IC50,NCI-H1304,35.2 nM
same,IC50,NCI-H1623,28.5 nM
same,IC50,NCI-H1651,60.6 nM
same,IC50,NCI-H209,50.8 nM
same,IC50,NCI-H292,5.05 nM
same,IC50,NCI-H747,> 64 nM
same,IC50,NCI-H82,60 nM
same,IC50,NMC-G1,14.9 nM
same,IC50,PFSK-1,20.5 nM
same,IC50,RERF-LC-MS,10.2 nM
same,IC50,RH-1,11 nM
same,IC50,RVH-421,3.88 nM
same,IC50,Ramos-2G6-4C10,4.45 nM
same,IC50,SF-126,> 64 nM
same,IC50,SK-MES-1,5.73 nM
same,IC50,SKG-IIIa,> 64 nM
same,IC50,SN12C,33.1 nM
same,IC50,SNU-C2B,7.75 nM
same,IC50,SW626,37.7 nM
same,IC50,SW756,> 64 nM
same,IC50,CWR22R,8.79 nM
same,IC50,639-V,6.61 nM
same,IC50,8505C,4.42 nM
same,IC50,A2058,3.5 nM
same,IC50,A673,7.27 nM
same,IC50,A704,> 64 nM
same,IC50,AM-38,33.5 nM
same,IC50,AN3-CA,6.27 nM
same,IC50,Becker,5.39 nM
same,IC50,CAL-12T,20.8 nM
same,IC50,CAL-72,> 64 nM
same,IC50,TE-12,> 64 nM
same,IC50,U-266,17.5 nM
